# System: MDA-MB-435 tumor-bearing mice
# Test: Small animal PET, organ uptake in orthotopic MDA-MB-435 tumor-bearing mice
# Type: in vivo, athymic nude mice
# Conditions: co-injection with excess (0.5 μmol, 300 μg) c(RGDfk), 0.5 h
substance,measurement,value
4-^18F-fluoro-3-trifluoromethylbenzoyl-E[c(RGDfk)2] [^18F-4],reduction of tumor uptake by blocking,82%
